From patent publication US20110280940A1, “Di-Vanilloyl And Tri-Vanilloyl Derivatives For Use In Anti-Cancer Therapy” (priority 2008, published 2011)

How the values were obtained:
Type in all cases: biochemical
[1] = target: T1, Aurora B kinase (Homo sapiens, UniProt Q96GD4); experiment: Radiometric protein kinase assay (33 PanQinase), Aurora B; conditions: for IC50: dose-response 0-100 μM, n=3, read-out: IC50: Concentration of drug needed in order to inhibit kinase activity by 50%, AurB; for inhibition at 57 µM: read-out: inhibition of Aurora B activity
T1 construct: made in house
Procedure: (§1) Note that at a concentration of 20 μM of the DLT compounds, the activity of the three Aurora kinases is reduced by approximately 40-50%, whereas at concentrations of 50 μM, i.e. the concentration used in the anti-proliferation assays of example 2B, the activity of said kinases is reduced by 60-75%.
(§2) The kinase inhibition profile of DLT95-Cl at 20 μM was determined using 255 protein kinases. Residual activity values were measured by testing each compound at one concentration in duplicate in each kinase assay. A radiometric protein kinase assay (33 PanQinase®Activity Assay) was used for measuring the kinase activity of 250 protein kinases. All kinase assays were performed in 96-well flashPlates™ from Perkin Elmer (Boston, Mass., USA) in a 50 μl reaction volume. The reaction cocktail was pipetted in 4 steps in the following order: • 10 μl of non-radioactive ATP solution (in H2O) • 25 μl of assay buffer/[γ-33P]-ATP mixture • 5 μl of test sample in 10% DMSO • 10 μl of enzyme/substrate mixture
(§3) The assay for all enzymes contained 60 mM HEPES-NaOH, pH 7.5, 3 mM MgCl2, 3 mM MnCl2, 3 μM Na-orthovanadate, 1.2 mM DTT, 50 μg/ml PEG20000, 1 μM ATP/[γ-33P]-ATP (approx. […] per well), protein kinase, and substrate. All PKC assays (except the PKC-mu and the PKC-nu assay) additionally contained 1 mM CaCl2, 4 mM EDTA, 5 μg/ml Phosphatidylserine and 1 μg/ml 1,2-Dioleyl-glycerol. The MYLK2, CAMK1D, CAMK2A, CAMK2B, CAMK2D, CAMK4, CAMKK2, DAPK2 and EEF2K assays additionally contained 1 μg/ml Calmodulin and 0.5 mM CaCl2. The PRKG1 and PRKG2 assays additionally contained 1 μM cGMP.
(§4) The protein kinases were expressed either in Sf9 insect cells or in E. coli as recombinant GST-fusion proteins or as His-tagged proteins. All kinases were produced from human cDNAs. Kinases were purified by affinity chromatography using either GSH-agarose (Sigma) or Ni-NTH-agarose (Qiagen). The purity of the protein kinases was examined by SDS-PAGE/coomassie staining. The identity of the protein kinases was checked by mass spectroscopy.
(§5) The reaction cocktails were incubated at 30° C. for 60 minutes. The reaction was stopped with 50 μl of 2% (v/v) H3PO4, plates were aspirated and washed two times with 200 μl 0.9% (w/v) NaCl. All assays were performed with a BeckmanCoulter Biomek 2000/SL robotic system.
(§6) Incorporation of ^33Pi (counting of “cpm”) was determined with a microplate scintillation counter (Microbeta, Wallac).
(§7) For each kinase, the median value of the cpm of three wells with complete reaction cocktails, but without kinase, was defined as “low control” […]. This value reflects unspecific binding of radioactivity to the plate in the absence of protein kinase but in the presence of the substrate. Additionally, for each kinase the median value of the cpm of three other wells with the complete reaction cocktail, but without any compound, was taken as the “high control”, i.e. full activity in the absence of any inhibitor […]. The difference between high and low control of was taken as 100% activity for each kinase. As part of the data evaluation the low control value of each kinase was subtracted from the high control value as well as from their corresponding “compound values”. The residual activity (in %) for each compound well was calculated by using the following formula: Res. Activity (%)=100×[(cpm of compound−low control)/(high control−low control)]

[2] = target: T2, Aurora A kinase (Homo sapiens, UniProt O14965); experiment: Radiometric protein kinase assay (33 PanQinase), Aurora A; conditions: for IC50: dose-response 0-100 μM, n=3, read-out: IC50: Concentration of drug needed in order to inhibit kinase activity by 50%, AurA; for inhibition at 57 µM: read-out: inhibition of Aurora A activity
T2 construct: made in house
T2 sequence (O14965 1-403): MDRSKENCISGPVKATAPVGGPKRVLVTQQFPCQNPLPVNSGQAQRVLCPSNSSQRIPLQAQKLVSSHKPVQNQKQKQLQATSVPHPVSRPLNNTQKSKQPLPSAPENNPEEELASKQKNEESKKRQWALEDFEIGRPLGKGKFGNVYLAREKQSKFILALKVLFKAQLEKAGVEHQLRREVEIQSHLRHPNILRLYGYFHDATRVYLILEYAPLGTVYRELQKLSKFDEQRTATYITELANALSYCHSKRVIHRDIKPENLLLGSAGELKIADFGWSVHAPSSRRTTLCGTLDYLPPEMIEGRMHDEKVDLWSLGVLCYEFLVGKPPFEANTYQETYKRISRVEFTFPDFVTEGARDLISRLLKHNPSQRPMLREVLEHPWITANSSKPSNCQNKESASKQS
Procedure: as §1, §2, §3, §4, §5, §6, §7

[3] = target: T3, WEE1 kinase (Homo sapiens, UniProt P30291); experiment: Radiometric protein kinase assay (33 PanQinase), WEE1; conditions: for IC50: dose-response 0-100 μM, n=3, read-out: IC50: Concentration of drug needed in order to inhibit kinase activity by 50%, WEE1; for inhibition at 57 µM: read-out: inhibition of WEE1 activity
T3 construct: made in house
Procedure: as §2, with “A” for “The kinase inhibition profile of DLT95-Cl at 20 μM was determined using 255 protein kinases. Residual activity values were measured by testing each compound at one concentration in duplicate in each kinase assay. A”
as §3, §4, §5, §6, §7

T3 sequence (P30291 whole entry): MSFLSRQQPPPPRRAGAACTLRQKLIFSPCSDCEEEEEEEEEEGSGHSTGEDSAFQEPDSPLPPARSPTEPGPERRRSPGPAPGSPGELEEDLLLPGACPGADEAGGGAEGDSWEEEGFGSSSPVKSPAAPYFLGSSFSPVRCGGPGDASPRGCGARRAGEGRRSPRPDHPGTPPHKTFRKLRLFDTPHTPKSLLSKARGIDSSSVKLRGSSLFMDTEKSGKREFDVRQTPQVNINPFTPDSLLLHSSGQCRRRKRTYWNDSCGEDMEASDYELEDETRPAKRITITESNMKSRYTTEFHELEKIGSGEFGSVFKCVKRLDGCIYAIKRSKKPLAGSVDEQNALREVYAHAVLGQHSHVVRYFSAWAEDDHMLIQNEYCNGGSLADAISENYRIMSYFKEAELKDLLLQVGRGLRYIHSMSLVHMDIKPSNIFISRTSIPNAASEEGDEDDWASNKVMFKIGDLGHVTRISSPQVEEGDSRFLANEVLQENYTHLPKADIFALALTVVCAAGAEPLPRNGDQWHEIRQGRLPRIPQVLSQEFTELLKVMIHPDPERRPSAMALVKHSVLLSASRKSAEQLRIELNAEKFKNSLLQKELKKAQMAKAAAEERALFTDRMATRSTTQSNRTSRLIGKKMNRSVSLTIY
T1 sequence (Q96GD4 whole entry): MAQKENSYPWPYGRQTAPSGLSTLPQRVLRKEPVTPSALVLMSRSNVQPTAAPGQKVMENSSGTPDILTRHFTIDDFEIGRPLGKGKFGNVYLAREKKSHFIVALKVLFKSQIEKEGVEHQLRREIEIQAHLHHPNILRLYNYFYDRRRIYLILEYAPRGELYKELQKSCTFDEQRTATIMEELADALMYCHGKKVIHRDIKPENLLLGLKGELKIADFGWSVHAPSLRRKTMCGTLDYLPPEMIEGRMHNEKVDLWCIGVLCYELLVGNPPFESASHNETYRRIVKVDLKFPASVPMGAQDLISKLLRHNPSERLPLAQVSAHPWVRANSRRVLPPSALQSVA

| SMILES | IC50 [1] [µM] | inhibition at 57 µM [1] [%] | IC50 [2] [µM] | inhibition at 57 µM [2] [%] | IC50 [3] [µM] | inhibition at 57 µM [3] [%] |
| --- | --- | --- | --- | --- | --- | --- |
| O=C(OCc1cc(COC(=O)c2ccc(O)c(F)c2)cc(COC(=O)c2ccc(O)c(F)c2)c1)c1ccc(O)c(F)c1 [DLT95-F, [3,5-bis[(4-hydroxy-3-fluoro-benzoyl)oxymethyl]phenyl]methyl 4-hydroxy-3-fluoro-benzoate] | 2.4 | ≥ 50 | 3.2 | ≥ 50 | 7.12 | ≥ 50 |
| COc1cc(C(=O)OCc2cc(COC(=O)c3ccc(O)c(OC)c3)cc(COC(=O)c3ccc(O)c(OC)c3)c2)ccc1O [DLT95, [3,5-bis[(4-hydroxy-3-methoxy-benzoyl)oxymethyl]phenyl]methyl 4-hydroxy-3-methoxy-benzoate] | 3.4 | – | 9.1 | – | > 100 | – |
| O=C(OCc1cc(COC(=O)c2ccc(O)c(Cl)c2)cc(COC(=O)c2ccc(O)c(Cl)c2)c1)c1ccc(O)c(Cl)c1 [DLT95-Cl, [3,5-bis[(4-hydroxy-3-chloro-benzoyl)oxymethyl]phenyl]methyl 4-hydroxy-3-chloro-benzoate] | 0.9 | ≥ 50 | 1.7 | ≥ 50 | 3.74 | ≥ 50 |
| COc1cc(C(=O)O)ccc1O [vanillic acid, reference compound] | > 100 | – | > 100 | – | > 100 | – |
